Where a name gives a salt, the structure may show the parent alone. Read-outs that look alike come from different tables or passages of the source.
Assays:
thrombin = assay: Amperometric determination of substrate hydrolysis by thrombin (oxidation current of liberated amine); format: biochemical
Method: (§1) (a) A potentiostat, which is intended to maintain a constant potential difference between the measurement electrode and the reference electrode. A saw-tooth function generator, which generates a potential which varies between -0.1 and +0.4 V at a rate of 0.2 V/second. A graphic recorder with a good dynamic performance. A polytetrafluoroethylene cell which has a capacity of 5 ml and can hold three electrodes.
(§2) (e) Solutions: The stock solutions of the enzyme (solution E) and of the substrate (solution S) are freshly prepared. The test solution, to which a given amount of E is added at the time t=0 of the kinetics, is termed A. The buffer, which has a pH of 8.15, is made up of 0.025 M Veronal^(R) and NaCl with an ionic strength of F=0.15.
(§3) (f) Example of an electrode made of carbon paste: 15 g of pure carbon powder are mixed with 9 ml of paraffin oil, for example that sold commercially under the trade name Nujol^(R). An electrode with a surface area of 0.16 cm^2 and a thickness of 3 mm can be shaped from the homogeneously mixed paste.
(§4) The measurement electrode is preconditioned in solution A without the enzyme, in order to impart to it a reproducible and precisely defined surface state before each cycle.
(§5) The preconditioning is achieved by applying a potential which has a saw-tooth profile and changes as a function of time, the potential varying between -0.1 and +b 0.4 V and changing at a rate of 0.2 V/second.
(§6) The electrode can then be used for the kinetic determinations, for which purpose the same saw-tooth potential as for the conditioning is applied every 60 seconds.
After deducting the base current at the particular potential, the current levels recorded at the maximum value of any one wave i=f(U) are proportional to the concentration of the electroactive species liberated during the hydrolysis. In the case of short hydrolysis times, a plot of the current levels against time is linear. The relationship between the enzyme concentration E (in μg/ml) and the rate of hydrolysis at time 0 (represented by the ratio (di/dt)o in μA/minute, that is to say by the gradient of the curve i=f (t) at the origin) for an electrode with a surface area of 1 cm^2 is given by the following formula: […]
The procedure is similar to that for trypsin and is also suitable for the determination of further enzymes, also with the aid of other substrates.
These constants (summarized in Table II below) have been obtained with the aid of the electrode prepared in accordance with Example I f).

trypsin = assay: Amperometric determination of substrate hydrolysis by trypsin (oxidation current of liberated pADA); format: biochemical
Method: as §1
(b) Measurement electrode: This consists of a platinum plate which is surrounded by a cylinder of polytetrafluoroethylene (surface area 0.0314 cm^2).
as §2, §3, §4, §5, §6
After deducting the base current at the particular potential, the current levels recorded at the maximum value of any one wave i=f(U) are proportional to the concentration of the electroactive species liberated during the hydrolysis. […]
The enzyme solution is added at the end of the potentiodynamic cycle which serves to record the base current (the base current has been shifted downwards; it is represented by the broken line). The concentrations corresponding to the current maxima can be read off from the calibration curve (FIG. 3). The conversion is determined as a function of time (maximum 30 minutes). […]
The reciprocal value of the rate (1/V) has been plotted as the ordinate and the reciprocal value of the concentration of the substrate (1/S) has been plotted as the abscissa. The reciprocal value of the rate 1/V was expressed as follows: either as (μA/minute--10 μg of enzyme)^-1 or as (μ mol×10^3 of pADA/minute--10 μg of enzyme). The points o represent an average value of 10 measured values for the rate and the points X represent a graphical average value. […]

[1] = carbon paste electrode, buffer a: Tris (0.025 M), NaCl (0.12 M), glycine (0.05 M), DMSO 4.76%, 20° C., pH 8.3
[2] = carbon paste electrode, buffer a: Tris (0.025 M), NaCl (0.12 M), glycine (0.05 M), DMSO 4.76%, 20° C., pH 8.3, read-out: KM: Michaelis constant

Structure (SMILES) | VM: maximum rate (thrombin; [1]) | Km (thrombin; [2]) | Standardization: current after hydrolysis for one minute (thrombin; 0.1 mM of substrate with 0.01 I.U. of thrombin for one minute, Veronal buffer) | Vm (thrombin; hydrolysis with thrombin, procedure similar to that for trypsin, Veronal buffer) | Km (thrombin; hydrolysis with thrombin, procedure similar to that for trypsin, Veronal buffer, read-out: Km) | VM: maximum rate (trypsin; carbon paste electrode, buffer b: Veronal (0.025 M), NaCl (0.12 M), DMSO 6.35%, 30° C., pH 8.4) | Km (trypsin; carbon paste electrode, buffer b: Veronal (0.025 M), NaCl (0.12 M), DMSO 6.35%, 30° C., pH 8.4, read-out: KM: Michaelis constant) | Standardization: current after hydrolysis for one minute (trypsin; hydrolysis of the substrate with 1 mM of trypsin for one minute, per cm^2 of electrode surface area, Veronal buffer pH 8.15) | Km (trypsin; hydrolysis with trypsin 10 μg/ml, 30° C., pH 8.15 (TRIS), DMSO 6.35%, LINEWEAVER-BURK diagram FIG. 7, read-out: MICHAELIS-MENTEN constant Km)
COc1cc(NC(=O)[C@H](CCCNC(=N)N)NC(=O)[C@@H]2CCCCN2C(=O)[C@H](N)Cc2ccccc2)cc2ccccc12 [H--D--Phe--Pip--Arg--4--MBNA] | 0.020 μmole/minute I.U. | 37 µM | – | – | – | – | – | – | –
N=C(N)NCCC[C@H](NC(=O)[C@@H]1CCCCN1C(=O)[C@H](N)Cc1ccccc1)C(=O)Nc1ccc(Nc2ccccc2)cc1 [HDL, H-D-phenylalanyl-L-pipecolyl-L-arginyl-p-amino-diphenylamide dihydrochloride] | 0.10 μmole/minute I.U. | 10 µM | 0.217 μA/cm^2 | 1.1×10^-7 moles/minute×I.U. | 10 µM | – | – | – | –
N=C(N)NCCCC(NC(=O)c1ccccc1)C(=O)Nc1ccc(Nc2ccccc2)cc1 (racemic) [D,L-BAPADA, benzoyl-D,L-arginine-p-aminodiphenyl-amide, HCl] | – | – | – | – | – | 0.00096 μmole/minute I.U. | 800 µM | 0.295 μA/cm^2 | 800 µM

Reference: patent publication US4304853A, “Method of determination for proteases and antiproteases” (priority 1979, dated 1981)
